Data as given in patent publication US11718593B2, “2,5-aryl-thiazole analogs for the treatment of neurodegenerative diseases” (Southern Research Institute, priority 2018, dated 2023).
Values after ≈ are worked out from the molar mass of the structure shown. Where two headings read alike, the source gives them in different places. Blank lines part the entries; values can stand above or below the compound they belong to.

Assays:
NF-κB = test: High throughput assay for NF-κB reporter activity (luciferase, stably transfected SH-SY5Y cells); assay type: cell-based, human; details: for maximal fold induction: 24 h, read-out: Emax
Procedure: SH-SY5Y human neuroblastoma cell line was obtained from the American Tissue Culture collection (ATCC). A commercially available expression vector containing the NF-kB promoter enhancer region driving the firefly luciferase gene expression and a second plasmid containing the gene conferring resistance to blasticidin were used in a dual transfection approach to obtain a stable cell line. SH-SY5Y cells stably transfected with pNF-κB-luc/pEF6 were plated at 8,000 per well in a volume of 40 μl DMEM in either Corning white opaque, 384-well plates (Cat. No. 3570, Corning, Inc., Corning, N.Y.) or Corning black clear bottom, 384-well plates (Cat. No. 3712, Corning, Inc., Corning, N.Y.) and treated with test compounds for 24 hr at 37° C. Luciferase activity was measured as a reporter of NF-kB activation using the Bright-Glo Luciferase assay kit (Cat. No. E2620, Promega, Madison, Wis.) according to the manufacturer's instructions. Cell viability was measured using the CellTiter-Glo Luminescent Cell Viability assay kit (Cat. No. G7572, Promega, Madison, Wis.) according to the manufacturer's instructions. Briefly, cells were equilibrated at room temperature for 30 min prior to the addition of Bright-Glo to the white opaque plates or CellTiter-Glo to the black clear bottom plates. A volume of assay buffer equal to the volume of cell media was added to each well and incubated for five min to allow complete cell lysis. All procedures were performed in the dark. Luminescence was measured by the Synergy4 Multi-detection microplate reader (BioTek, Winooski, Vt.) within 15 min of lysis.

SOD2 [1] = test: SOD2 mRNA expression in vitro (FIG. 5); assay type: cell-based; details: FIG. 1A-D
Excerpt: While a number of new compounds derived from Ataluren and compound no. […] 1 and no. 2. […] Whether these and other compounds are capable of inducing SOD2 mRNA and protein activity in vitro and in vivo, in addition to their ability to protect neurons from hydrogen peroxide or glutamate-induced cell death (as in Carri et al. (2015) Frontiers in cellular neuroscience 9:41) and dysfunction/cell death in the SOD1 G93A transgenic mouse model will also be evaluated.

[2] = test system: SOD1 G93A transgenic mouse; test: Efficacy in the SOD1 G93A transgenic mouse model of ALS; assay type: in vivo; details: for progression to a score of 4: 25 mg/kg I.P. daily from day 96, 4-point severity score; for survival: SOD1 G93A males, 25 mg/kg I.P. daily from day 96
Procedure: Briefly, Congenic SOD1-G93A mice were dosed with up to 50 mg/kg of both compounds (IP) to evaluate any toxicity issues prior to initiating the efficacy study. Also, mice administered 20 mg of each compound had high plasma and brain levels at 30 minutes. Next, individually genotyped SOD1-G93A mice (Prize4life-Jackson Labs) were treated with each compound (25 mg/kg, IP) at disease onset (day 96). The treatment extended survival, reduced weight loss and improved the neurologic symptoms. […] Data document a 66% and an 81% lifespan extension for the compounds, respectively, at 50% survival in male mice. […] The average weight within the groups before the treatment was similar.
While compounds which increase SOD2 expression and activity have potential utility in a number of neurodegenerative diseases involving ROS overproduction, it was decided to test these two compounds in a mouse model of ALS for a variety of reasons, including the evidence for oxidative stress in ALS (described above), the ability of these compounds to induce SOD2 in a motor neuron-like mouse cell line (NSC-34; FIG. 1B), and the availability of a mouse model with dysfunction in SOD1 (human SOD1 G93A transgenic mouse; Jackson Laboratory). The pilot experiment involved treating six wildtype and six SOD1 G93A transgenic males on the C57BL/6 background with 25 mg/kg compound no. 1 and compound no. 2 I.P. daily, beginning around disease onset (day 96; FIG. 2A and FIG. 2B). Mouse survival and behavioral phenotype were observed based on guidelines from “Working with ALS mice: JAX handbook,” using a 4-point severity score (FIG. 2C).
Referring to FIG. 2A and FIG. 2B, SOD1 G93A mice received daily IP injections of saline (control) or compounds (25 mg/kg) starting on day 96.

[3] = Bioavailability / PK study (IV and PO); assay type: in vivo, mouse; details: for oral bioavailability: I.V./P.O., 1 and 5 mg/kg; for half-life: read-out: plasma half-life (t1/2)
Procedure: The experiments will involve the administration of compounds to 5-6 week old CD1 male mice. Mice are dosed by either a 1 mg/kg IV bolus or 5 mg/kg oral gavage. Blood samples are collected by cardiac puncture at 0, 0.25, 0.5, 1, 2, 4, 6, 8, 12, and 24 hrs. There will be three mice per time point. Plasma concentration over time will be determined by LC/MS from which the standard PK parameters of clearance, volume of distribution, t1/2 and % F can be derived using WinNoLin software (Pharsight Inc.). This will require a total of 60 mice per compound. Plasma will be analyzed by reverse phase chromatography with MS/MS detection operating in the positive ion mode using multiple reaction monitoring using an internal standard and Applied Biosystems Analyst 1.4 software. Peak time (when maximum plasma drug concentration occurs), peak drug level [approximate maximum concentrations of drug in plasma (Cmax)] and tin for drug elimination will be estimated for each tested compound. Bioavailability (F) will be calculated from the ratio of AUCPO/AUCIV and expressed as a percentage. To determine levels in brain, six additional mice will be dosed with 1 mg/kg I.V. and sacrificed at 0.25 and 1 hr. Brain and spinal cord samples will be collected at these two time points, quick frozen in an ice box and kept at −75±15° C. All samples will be weighed and homogenized with phosphate buffered saline (PBS) by brain weight (g) to PBS volume (mL) ratio 1:3 before analysis. The actual concentration is the detected value multiplied by the dilution factor.

[4] = Plasma and brain levels in SOD1 G93A mice; assay type: in vivo, mouse; details: 50 mg/kg I.P., within 30 minutes
Procedure: Before the studies above were initiated, congenic SOD1 G93A mice were dosed with 50 mg/kg of compound no. 1 and compound no. 2 via I.P. injection to rule out any toxicity issues prior to initiating the efficacy study (FIG. 2A-C).

SOD2 [5] = test: SOD2 mRNA expression by quantitative RT-PCR in SH-SY5Y neuroblastoma cells; assay type: cell-based; details: human SH-SY5Y, 1 μM, 6 h (FIG. 1A)
inhibitory κB = test: Inhibitory κB expression levels; assay type: cell-based
SOD2 [6] = test: SOD2 mRNA expression by quantitative RT-PCR in NSC-34 neuroblastoma cells; assay type: cell-based; details: mouse NSC-34, 1 μM, 24 h (FIG. 1B)
SOD2 [7] = test: SOD2 protein expression and SOD activity in primary rat cortical cultures; assay type: cell-based; details: for SOD2 protein expression: primary rat cortical cultures (FIG. 1C); for SOD activity: primary rat cortical cultures (FIG. 1D)
Excerpt: N=3-6/group, mean+/−SEM, *p<0.05, **p<0.01, 2-way ANOVA, post-hoc t-test.

[8] = test system: glutamate-induced toxicity in primary cultures; test: Neuroprotection in vitro; assay type: cell-based
Solubility = assay type: physicochemical; details: buffer, pH 7.4, aqueous buffer, kinetic from dmso stock
Excerpt: (§1) A standard panel of in vitro ADME assays will be utilized to assess drug-like properties of compounds and to inform subsequent in vivo PK studies. These assays include: (a) Permeability: MDCK (Madin Darby Canine Kidney) cells transfected with the MDR1 gene encoding for the multi-drug resistant transporter (Pgp) will be utilized to determine a compound's ability to permeate the membrane in apical to basolateral (A-B) and basolateral to apical (B-A) directions. The derived apparent permeability coefficient (Papp) provides an estimate of passive permeability; a ratio of Papp in the B-A/A-B direction gives an estimate of transporter efflux; (b) Solubility: Kinetic solubility is an important parameter for accurate determinations of the dose response. This is estimated using the shake flask method with a μSol Explorer (PION, Billerica, Mass.) at pH 7.4. Compounds are added as a DMSO solution to buffer. The average of two determinations at pH 7.4 will be reported. Solubility at pH 7.4 is relevant for in vitro assays; (c) Metabolic Stability: The potential for a high metabolic clearance compound is estimated using a liver microsome assay. […] The disappearance of the parent molecule is measured by liquid chromatography/mass spectroscopy (LC/MS) detection. […]

MDR/MDCK cells = test: Permeability in MDR/MDCK cells; assay type: in vitro ADME, Canine
Excerpt: as §1

[9] = Homo sapiens, SH-SY5Y, read-out: EC50
[10] = Homo sapiens, SH-SY5Y, Table 2, no unit printed (text: fold)
[11] = Homo sapiens, SH-SY5Y, Table 2, unit not given (μM for nos. 3 and 20), read-out: EC50
[12] = Table 2, unit not given (μM for nos. 3 and 20)

Compound: O=C(/C=C\Nc1ccccc1Br)c1ccc2c(c1)OCO2 [Compound 1, (Z)-1-(Benzo[d][1,3]dioxol-5-yl)-3-((2-bromophenyl)amino)Prop-2-en-1-one]
SOD2 mRNA expression increase (SOD2 [1]): 2 fold
progression to a score of 4 [2]: delayed
survival [2]: significantly prolonged
oral bioavailability [3]: lack of oral bioavailability
half-life ([3]; male, CD1, mouse, plasma): < 5 min
plasma and brain levels [4]: substantial plasma and brain levels
SOD2 mRNA expression (SOD2 [5]): induce SOD2
inhibitory κB expression levels (inhibitory κB): do not effect inhibitory κB expression levels
SOD2 mRNA expression (SOD2 [6]): induce SOD2
maximal fold induction (NF-κB; [10]): 26
EC50 (NF-κB; [11]): 0.5 µM
SOD2 protein expression (SOD2 [7]): induce SOD2
SOD activity (SOD2 [7]): increase
neuroprotection in vitro [8]: neuroprotective in vitro

Compound: Cc1cccnc1Nc1nc(-c2ccccn2)cs1 [Compound 2, N-(3-Methylpyridin-2-yl)-4-(pyridin-2-yl)thiazol-2-amine]
SOD2 mRNA expression increase (SOD2 [1]): 2 fold
progression to a score of 4 [2]: delayed
survival [2]: significantly prolonged
oral bioavailability [3]: lack of oral bioavailability
half-life ([3]; male, CD1, mouse, plasma): < 5 min
plasma and brain levels [4]: substantial plasma and brain levels
SOD2 mRNA expression (SOD2 [5]): induce SOD2
inhibitory κB expression levels (inhibitory κB): do not effect inhibitory κB expression levels
SOD2 mRNA expression (SOD2 [6]): induce SOD2
maximal fold induction (NF-κB; [10]): 40
EC50 (NF-κB; [11]): 0.21 µM
SOD2 protein expression (SOD2 [7]): induce SOD2
SOD activity (SOD2 [7]): increase
neuroprotection in vitro [8]: neuroprotective in vitro

Compound: O=C(O)c1cccc(-c2csc(Nc3ccccc3F)n2)c1 [Compound 3, 3-(2-((2-Fluorophenyl)amino)thiazol-4-yl)benzoic acid]
Cmax ([3]; male, CD1, mouse, plasma, oral, 5 mg/kg dose): 100 ng/mL
bioavailability ([3]; male, CD1, mouse, plasma, 1 mg/Kg IV and 5 mg/Kg po, read-out: orally bioavailable): 26%
solubility (Solubility): 80 µM (≈ 25.1 µg/mL)
EC50 (NF-κB; [11]): 0.84 µM
EC50 (NF-κB; [9]): ~1 µM
efflux (MDR/MDCK cells): no efflux was observed
permeability (MDR/MDCK cells): highly permeable

Compound: Fc1ccccc1Nc1nc(-c2cccc(C(F)(F)F)c2)cs1 [Compound 16]
maximal fold induction (NF-κB; [10]): 16
EC50 (NF-κB; [11]): 9.35 µM

Compound: Fc1ccccc1Nc1nc(-c2cccc(Cl)c2)cs1 [Compound 17]
maximal fold induction (NF-κB; [10]): 14.5
EC50 (NF-κB; [11]): > 10 µM

Compound: N#Cc1ccc(-c2csc(Nc3ccccc3F)n2)cc1 [Compound 27]
EC50 (NF-κB; [11]): > 10 µM

Compound: Cc1noc(-c2cccc(-c3csc(Nc4ccccc4F)n3)c2)n1 [Compound 31]
EC50 (NF-κB; [12]): Inactive

Compound: N-(4-(2-((2-Fluorophenyl)amino)thiazol-4-yl)benzyl)acetamide [Compound 20]
Emax (NF-κB): > 20 fold
Emax (NF-κB; Table 2, no unit printed (text: fold)): 27.58
EC50 (NF-κB; Table 2, unit not given (μM for nos. 3 and 20), read-out: EC50): 3.75 µM
EC50 (NF-κB; read-out: EC50): 4 µM

More lines, main results first:

EC50 (NF-κB; [9]): 1.5 µM
Compound: O=C(O)c1cccc(-c2noc(-c3ccccc3F)n2)c1 [Ataluren, reference compound]
induction (NF-κB): 9-10 fold

EC50 (NF-κB; [11]): > 10 µM
Compound: Fc1ccc(-c2csc(Nc3ccccc3F)n2)cc1F [Compound 19]
maximal fold induction (NF-κB; [10]): 18.5

EC50 (NF-κB; [11]): > 10 µM
Compound: CC(C)(O)c1cccc(-c2csc(Nc3ccccc3F)n2)c1 [Compound 21]
maximal fold induction (NF-κB; [10]): 18.9

EC50 (NF-κB; [11]): > 10 µM
Compound: Fc1ccccc1Nc1nc(-c2ccc(OCC(F)(F)F)cc2)cs1 [Compound 24]

EC50 (NF-κB; [11]): > 10 µM
Compound: N#Cc1cccc(-c2csc(Nc3ccccc3F)n2)c1 [Compound 25]

EC50 (NF-κB; [11]): > 10 µM
Compound: Fc1ccccc1Nc1nc(-c2ccc(C(F)(F)F)cc2)cs1 [Compound 26]

EC50 (NF-κB; [12]): Inactive
Compound: O=C(NC1CC1)c1cccc(-c2csc(Nc3ccccc3F)n2)c1 [Compound 28]

EC50 (NF-κB; [11]): > 10 µM
Compound: Fc1ccccc1Nc1nc(-c2ccc(Cl)c(Cl)c2)cs1 [Compound 29]

EC50 (NF-κB; [12]): Inactive
Compound: NC(=O)c1cccc(-c2csc(Nc3ccccc3F)n2)c1 [Compound 30]

EC50 (NF-κB; [12]): Inactive
Compound: Fc1ccc(-c2csc(Nc3ccccc3F)n2)cc1 [Compound 43]
